These results are taken from US20110015162A1, “15,16-Methylene-17-hydroxy-19-nor-21-carboxylic acid-steroid Y-lactone derivative, use thereof and medicinal products containing the derivative” (Bayer Schering Pharma Aktiengesellschaft, priority 2007, published 2011).

Read-outs that look alike come from different tables or passages of the source.

In assay [1] the target is T1, androgen receptor (Homo sapiens, UniProt P10275).
T1 sequence (P10275 1-920): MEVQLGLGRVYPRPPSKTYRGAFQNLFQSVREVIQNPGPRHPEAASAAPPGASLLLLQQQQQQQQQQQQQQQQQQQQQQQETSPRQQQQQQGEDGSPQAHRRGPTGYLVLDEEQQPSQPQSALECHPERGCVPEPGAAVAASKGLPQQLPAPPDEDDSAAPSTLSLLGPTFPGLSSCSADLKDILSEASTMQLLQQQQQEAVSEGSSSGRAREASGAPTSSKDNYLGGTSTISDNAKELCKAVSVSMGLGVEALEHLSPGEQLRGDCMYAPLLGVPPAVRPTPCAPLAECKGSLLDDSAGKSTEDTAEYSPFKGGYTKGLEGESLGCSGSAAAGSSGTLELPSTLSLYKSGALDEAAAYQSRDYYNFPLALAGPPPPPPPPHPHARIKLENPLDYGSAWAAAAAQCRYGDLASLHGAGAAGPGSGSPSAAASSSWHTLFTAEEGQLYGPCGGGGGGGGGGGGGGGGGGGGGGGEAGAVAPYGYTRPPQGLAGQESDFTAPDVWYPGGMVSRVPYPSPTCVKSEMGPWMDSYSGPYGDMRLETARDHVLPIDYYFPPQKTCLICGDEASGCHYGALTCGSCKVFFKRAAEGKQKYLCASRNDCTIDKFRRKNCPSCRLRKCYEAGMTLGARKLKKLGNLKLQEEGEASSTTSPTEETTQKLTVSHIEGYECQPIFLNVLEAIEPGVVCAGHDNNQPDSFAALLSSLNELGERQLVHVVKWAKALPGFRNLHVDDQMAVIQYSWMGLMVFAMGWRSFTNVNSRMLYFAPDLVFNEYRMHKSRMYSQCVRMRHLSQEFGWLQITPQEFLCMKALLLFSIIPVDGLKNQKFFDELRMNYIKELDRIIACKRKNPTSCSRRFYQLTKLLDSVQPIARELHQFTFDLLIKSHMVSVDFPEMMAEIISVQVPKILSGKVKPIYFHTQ
Put plainly: Androgen receptor binding test. Also noted: expressed in transfected cells. As to conditions: reference substance 3H-testosterone.

Assay [2] deals with T2, mineralocorticoid receptor (Homo sapiens, UniProt P08235).
T2 sequence (P08235 1-984): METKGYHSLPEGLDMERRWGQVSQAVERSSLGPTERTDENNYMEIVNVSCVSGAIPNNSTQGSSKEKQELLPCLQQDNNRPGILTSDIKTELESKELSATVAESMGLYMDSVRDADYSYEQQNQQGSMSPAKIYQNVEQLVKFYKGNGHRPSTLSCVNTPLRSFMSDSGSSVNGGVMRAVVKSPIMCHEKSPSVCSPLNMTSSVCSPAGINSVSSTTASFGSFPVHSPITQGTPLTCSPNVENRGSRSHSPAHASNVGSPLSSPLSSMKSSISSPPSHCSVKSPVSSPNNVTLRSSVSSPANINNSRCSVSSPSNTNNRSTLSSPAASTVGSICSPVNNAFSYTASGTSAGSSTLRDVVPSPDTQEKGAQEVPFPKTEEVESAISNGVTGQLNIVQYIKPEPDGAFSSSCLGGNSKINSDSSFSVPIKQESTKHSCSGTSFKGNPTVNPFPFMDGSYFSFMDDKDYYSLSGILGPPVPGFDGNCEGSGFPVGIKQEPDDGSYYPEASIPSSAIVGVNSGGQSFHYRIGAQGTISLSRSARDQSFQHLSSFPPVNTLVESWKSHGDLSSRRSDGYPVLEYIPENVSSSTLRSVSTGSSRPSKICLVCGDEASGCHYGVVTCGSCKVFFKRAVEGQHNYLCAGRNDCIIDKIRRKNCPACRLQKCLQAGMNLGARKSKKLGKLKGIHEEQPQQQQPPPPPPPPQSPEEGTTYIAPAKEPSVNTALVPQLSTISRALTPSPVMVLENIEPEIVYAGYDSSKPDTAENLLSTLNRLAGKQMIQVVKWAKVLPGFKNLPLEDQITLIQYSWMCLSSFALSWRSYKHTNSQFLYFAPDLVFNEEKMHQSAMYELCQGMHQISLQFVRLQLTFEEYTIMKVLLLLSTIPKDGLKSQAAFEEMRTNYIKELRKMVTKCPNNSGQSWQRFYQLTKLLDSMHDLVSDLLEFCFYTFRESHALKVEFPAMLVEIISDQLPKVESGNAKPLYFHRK
As to the kind of experiment: Antimineralocorticoid action by transactivation test (MDCK reporter cells).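 As to Emax: percent inhibition of the aldosterone-stimulated reporter signal.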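 As to Mineralocorticoid receptor Antagonism efficacy: percent inhibition of the aldosterone-stimulated reporter signal.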 It is filed as cell-based. Also noted: expressed in transfected cells; host or cells: MDCK cells. The following applies: for Emax: read-out: Mineralocorticoid receptor Antagonism efficacy. The method, then:
(§1) The test compounds were added eight hours later, and the cells were incubated with the compounds for 16 hours. The tests were carried out in triplicate. At the end of incubation the medium containing the effector was removed and replaced with lysis buffer. After luciferase assay substrate (Promega, #E1501) had been added, the 96-well plates were then put in a microplate luminometer (Pherastar, BMG Labtech), and the luminescence was measured. The IC50 values were evaluated using software for calculating dose-effect relations.
5. Determination of Antimineralocorticoid Action by Means of Transactivation Tests:
The antimineralocorticoid activity of the test substances was determined as for the transactivation tests described above.
The following modifications were undertaken: In this case reporter cell lines were used (MDCK cells) that express the human mineralocorticoid receptor, and transiently contain a reporter construct that contains luciferase under the control of a steroid hormone-responsive promoter.

Assay [3] deals with T1, androgen receptor. As to the kind of experiment: Androgenic/antiandrogenic action by transactivation test (PC3 reporter cells). It is filed as cell-based. Also noted: expressed in transfected cells; host or cells: PC3 cells. The method, then: as §1
6. Determination of Androgenic/Antiandrogenic Action by Means of Transactivation Tests:
The androgenic/antiandrogenic action of the test substances was determined as for the transactivation tests described above.
The following modifications were made: In this case reporter cell lines were used (PC3 cells) that express the androgen receptor, and a reporter construct that contains luciferase under the control of a steroid hormone-responsive promoter.
For determination of the antiandrogenic efficacy, 0.05 nM R1881 was added to the cells, in order to achieve almost maximum stimulation of the reporter gene.

Assay [4] concerns the target T2, mineralocorticoid receptor. As to the kind of experiment: Mineralocorticoid receptor binding test. As to conditions: reference substance 3H-aldosterone, cytosol from MR-expressing insect cells (Hi5). Also noted: made in house; host or cells: Hi5 insect cells (cytosol). On the procedure: Using cytosol from progesterone receptor-expressing insect cells (Hi5), competitive binding to the progesterone receptor was determined from the ability to displace ^3H-progesterone as reference substance from the receptor.
2. Mineralocorticoid Receptor Binding Test:
The test was carried out as in 1, with the following modifications: cytosol from mineralocorticoid receptor-expressing insect cells (Hi5) was used, and the reference substance was ^3H-aldosterone.

[5] abbreviates: PC-3, read-out: Androgen receptor Agonism efficacy.
The mark [6] stands for this setting: PC-3, read-out: Androgen receptor Antagonism efficacy.
Setting [7] is: MDCK cells, with 1 nM aldosterone, read-out: Mineralocorticoid receptor Antagonism IC50.
Setting [8] is: MDCK cells, with 1 nM aldosterone.

In general, IC50 refers to the concentration that gives 50% inhibition. As a reminder, the EC50 is the midpoint of the concentration-response curve.

With `C[C@]12CC[C@H]3[C@@H](CCC4=C(Cl)C(=O)CC[C@@H]43)[C@@H]1[C@H]1C[C@H]1[C@@]21C=CC(=O)O1` [Example 18, 4-Chloro-17β-hydroxy-15α,16α-methylene-19-nor-17α-pregna-4,20(Z)-dien-3-one-21-carboxylic acid γ-lactone], the “Androgen receptor Competition factor” value on androgen receptor [1] worked out at 7.3. The IC50 in assay [2] worked out at 830 nM. Also, the Emax worked out at 37.3% in assay [2] (MDCK), 71.5% on androgen receptor [3] (setting [5]) and 5% at androgen receptor [3] (setting [6]). This molecule also yielded a half-maximal effective concentration (EC50) on androgen receptor [3] of 12 nM. In addition, in assay [4], the “Mineralocorticoid receptor (MR) Competition factor” value (from here on “Mineralocorticoid receptor”) stood at 35.0.

On to `CC[C@]12CC[C@H]3[C@@H](CCC4=CC(=O)CC[C@@H]43)[C@@H]1[C@@H]1C[C@@H]1[C@@]21C=CC(=O)O1` [Example 9, 17β-Hydroxy-18-methyl-15β,16β-methylene-19-nor-17α-pregna-4,20(Z) dien-3-one-21-carboxylic acid γ-lactone], for which the “Androgen receptor Competition factor” value at androgen receptor [1] came out at 5.6. In assay [2], this molecule came in with a concentration for half-maximal inhibition (IC50) of 3 nM. Besides, the figures for the Emax (in assay [2] (MDCK); on androgen receptor [3] (setting [5]); on androgen receptor [3] (setting [6])) were 27.8%, 96.2% and 5%, respectively. The molecule also returned an EC50 at androgen receptor [3] of 4.7 nM. For the same molecule, in assay [4], the “Mineralocorticoid receptor” value was found to be 1.1.

Consider `CC[C@]12CC[C@H]3[C@@H](C=CC4=CC(=O)CC[C@@H]43)[C@@H]1[C@@H]1C[C@@H]1[C@@]21C=CC(=O)O1` [Example 3, 17β-Hydroxy-18-methyl-15β,16β-methylene-19-nor-17α-pregna-4,6,20(Z)-trien-3-one-21-carboxylic acid γ-lactone], for which, on androgen receptor [1], the “Androgen receptor Competition factor” value is 62.9. Besides, the midpoint of inhibition in assay [2], the IC50, lay at 22 nM. Besides, the Emax worked out at 97.6% in assay [2] (MDCK), 25.4% at androgen receptor [3] (setting [5]) and 5% on androgen receptor [3] (setting [6]). Also, the EC50 at androgen receptor [3] was determined as 120 nM. Besides, the “Mineralocorticoid receptor” value in assay [4] came to 1.5.

Turning to `CC[C@]12CC[C@H]3[C@H]([C@@H]1[C@@H]1C[C@@H]1[C@@]21C=CC(=O)O1)[C@H](C)CC1=CC(=O)CC[C@@H]13` [Example 4A, 7α,18-Bismethyl-17β-hydroxy-15β,16β-methylene-19-nor-17α-pregna-4,20(Z)-dien-3-one-21-carboxylic acid γ-lactone], the “Androgen receptor Competition factor” value on androgen receptor [1] is given as 2.6. Besides, the half-maximal inhibitory concentration (IC50) in assay [2] was 3 nM. Moreover, the Emax in assay [2] (MDCK) is 99.9%; on androgen receptor [3] (setting [5]), 97.5%; on androgen receptor [3] (setting [6]), 5%. Moreover, it took 3 nM to reach a half-maximal effect at androgen receptor [3] (EC50). For the same molecule, the “Mineralocorticoid receptor” value in assay [4] was 0.6.

For `C[C@]12CC[C@H]3[C@@H](C=CC4=CC(=O)CC[C@@H]43)[C@@H]1[C@H]1C[C@H]1[C@@]21C=CC(=O)O1` [Example 13, 17β-Hydroxy-15α,16α-methylene-19-nor-17α-pregna-4,6,20(Z)-trien-3-one-21-carboxylic acid γ-lactone], on androgen receptor [1], the “Androgen receptor Competition factor” value is given as 163.2. Moreover, the results for the IC50 (in assay [2] (setting [7]); at androgen receptor [3]) were 12 nM and 100 nM, respectively. For the same molecule, the Emax in assay [2] (setting [8]) is 116%; on androgen receptor [3] (setting [5]) it was 14.4%; at androgen receptor [3] (setting [6]) it was 47.4%. Further, the concentration for a half-maximal effect (EC50) on androgen receptor [3] was found to be 120 nM. The “Mineralocorticoid receptor” value in assay [4] is 1.6.

Turning to `CC[C@@H]1CC2=CC(=O)CC[C@@H]2[C@H]2CC[C@@]3(C)[C@@H]([C@H]4C[C@H]4[C@@]34C=CC(=O)O4)[C@H]12` [Example 15A, 17β-Hydroxy-7α-ethyl-15α,16α-methylene-19-nor-17α-pregna-4,20(Z)-dien-3-one-21-carboxylic acid γ-lactone], the “Androgen receptor Competition factor” value at androgen receptor [1] turned out to be 2.2. The IC50 in assay [2] came out at 12 nM. Besides, the values for the Emax (in assay [2] (MDCK); at androgen receptor [3] (setting [5]); on androgen receptor [3] (setting [6])) were 112%, 49.4% and 5%, respectively. Further, the midpoint of the response at androgen receptor [3], the EC50, lay at 11 nM. The “Mineralocorticoid receptor” value in assay [4] was 0.8.

In the case of `C=C[C@@H]1CC2=CC(=O)CC[C@@H]2[C@H]2CC[C@@]3(CC)[C@@H]([C@@H]4C[C@@H]4[C@@]34C=CC(=O)O4)[C@@H]21` [Example 6A, 17β-Hydroxy-7α-vinyl-18-methyl-15β,16β-methylene-19-nor-17α-pregna-4,20(Z)-dien-3-one-21-carboxylic acid γ-lactone], on androgen receptor [1], the “Androgen receptor Competition factor” value was found to be 1.7. In assay [2], the IC50 was found to be 9 nM. Moreover, the Emax amounted to 102% in assay [2] (MDCK), 118% at androgen receptor [3] (setting [5]) and 5% at androgen receptor [3] (setting [6]). Moreover, the concentration giving a half-maximal response (EC50) at androgen receptor [3] amounted to 0.98 nM. Further, the “Mineralocorticoid receptor” value in assay [4] came out at 1.5.

As for `CC[C@]12CC[C@H]3[C@@H]([C@H]4C[C@H]4C4=C(Cl)C(=O)CC[C@@H]43)[C@@H]1[C@@H]1C[C@@H]1[C@@]21C=CC(=O)O1` [Example 8, 6β,7β;15β,16β-Bismethylene-4-chloro-17β-hydroxy-18-methyl-19-nor-17α-pregna-4,20(Z)-dien-3-one-21-carboxylic acid γ-lactone], the “Androgen receptor Competition factor” value on androgen receptor [1] was 240.0. The IC50 was 960 nM in assay [2] (setting [7]) and 130 nM against androgen receptor [3]. Further, the Emax in assay [2] (setting [8]) was 31.1%; on androgen receptor [3] (setting [5]), 32.9%; at androgen receptor [3] (setting [6]) it was 22.9%. It took 250 nM to reach a half-maximal effect at androgen receptor [3] (EC50). For the same molecule, the “Mineralocorticoid receptor” value in assay [4] worked out at 29.0.
